Assay results as given in US6583154B1, “Compounds and methods which modulate feeding behavior and related diseases” (Amgen Inc., priority 1998, dated 2003).
Where a name gives a salt, the structure may show the parent alone.

What was measured:
Long-Evans male rats = assay: IP administration of compounds in fasted Long-Evans male rats, 2 hr food intake; type: in vivo; details: Rattus norvegicus; male Long Evans rats fasted 18-20 hr; 30 mg/kg (ip) in 2% tween; food given after 30 min, weighed 2 hr later; vs vehicle; read-out: inhibition of feeding (2 hr food intake)
Description: Protocol for IP Administration of Compounds in Fasted Long-Evans Male Rats
Male Long Evans rats (85-100 g)were obtained from Harlan (Indianapolis, Ind.) and were given at least a one week acclimation period to Ambients animal care facilities. Animals were individually housed and were provided ad libitum food and water. For testing, rats were fasted for 18-20 hr (overnight) prior to the start of the experiment. On the test day, test compounds or vehicle was administered via the intraperitoneal (i.p.) route of administration. Test compounds were suspended in a 2% tween solution; the 2% tween solution was used as the vehicle treatment (control group). Group sizes for each treatment were 6-8 animals. After 30 min, premeasured food was placed into the cages. Two hours later, the food was weighed again. The difference between 2 hr weight and the premeasured weight was taken as 2 hr food intake.

Male BALB-C mice = assay: IP administration of compounds in fasted male BALB-C mice, 2 hr food intake; type: in vivo; details: Mus musculus; male BALB-C mice fasted 18-20 hr; 30 mg/kg (ip) in 2% tween; food given after 30 min, weighed 2 hr later; vs vehicle; read-out: inhibition of feeding (2 hr food intake)
Text: Protocol For IP Administration Of Compounds In Male BALB-C Mice.
Male BALB-C mice (20-25 g)were obtained from Charles Rivers (Wilmington, Mass.) and were given at least a one week acclimation period to Amgen's animal care facilities. Animals were housed 10/cage and were provided ad libitum food and water. For testing, mice were fasted for 18-20 hr (overnight) prior to the start of the experiment. On the day of the experiment, mice were removed from group housing and placed into individual cages (without food). Test compounds or vehicle was then administered via the intraperitoneal (i.p.) route of administration. Test compounds were suspended in a 2% tween solution; the 2% tween solution was used as the vehicle treatment (control group). Group sizes for each treatment were 6-8 animals. After 30 min, premeasured food was placed into the cages. Two hours later, the food was weighed again. The difference between 2 hr weight and the premeasured weight was taken as 2 hr food intake.

melting point	SMILES	inhibition in vivo at 30 mg/kg (Long-Evans male rats) [%]	inhibition in vivo at 30 mg/kg (Male BALB-C mice) [%]
–	Cc1nc(N2CCCCC2)c2[nH]c(-c3cc4ccccc4o3)cc2n1 [Example 85, 2-(2-Methyl-4-piperidylpyrrolo[4,5-d]pyrimidin-6-yl)benzo[b]furan Hydrochloride Monohydrate]	≥ 10	≥ 10
–	Cc1nc(N2CCCCC2)c2[nH]c(C3CCCCC3)cc2n1 [Example 80d, 6-Cyclohexyl-2-methyl-4-piperidylpyrrolo[3,2-d]pyrimidine Hydrochloride Hydrate]	≥ 10	≥ 10
–	Cc1nc(N2CCCCC2)c2[nH]c(-c3cc(C)oc3C)cc2n1 [Example 108, 2,5-Dimethyl-3-(2-methyl-4-piperidylpyrrolo[4,5-d]pyrimidin-6-yl)furan Hydrochloride Monohydrate]	≥ 10	≥ 10
–	Cc1nc(N2CCCCC2C)c2[nH]c(-c3ccccc3)cc2n1 (stereo not drawn) [Example 63, 2-Methyl-6-phenyl-4-(2-methylpiperidinyl)pyrrolo(3,2-d)pyrimidine Hydrochloride Monohydrate]	≥ 10	≥ 10
–	Cc1nc(NC[C@H]2CC[C@H](CNS(=O)(=O)c3cccc4ccccc34)CC2)c2[nH]c(-c3ccccc3)cc2n1 [Example 194, trans-[(4-{[(2-Methyl-6-phenylpyrrolo[2,3-e]pyrimidin-4-yl)amino]methyl}cyclohexyl)methyl](naphthylsulfonyl)amine Hydrochloride Hydrate]	≥ 10	≥ 10
253.8 to 255.2 °C (dec.)	Cc1nc(N2CCCCC2)c2[nH]c(-c3ccc(Cl)cc3)cc2n1.Cl [Example 92d, 6-(4-Chlorophenyl)-2-methyl-4-piperidylpyrrolo[3,2-d]pyrimidine Hydrochloride]	–	≥ 10
–	Cc1nc(N2CC=CC2)c2[nH]c(-c3ccccc3)cc2n1 [Example 61, 2-Methyl-6-phenyl-4-(pyrrolinyl)pyrrolo[3,2-d]pyrimidine Hydrochloride Monohydrate]	≥ 10	≥ 10
–	Cc1nc(N2CCCCC2)c2oc(-c3ccc(Cl)cc3)cc2n1 [Example 95c, 6-(4-Chlorophenyl)-2-methyl-4-piperidinylfurano-[3,2-d]-pyrimidine Hydrochloride Hydrate]	≥ 10	≥ 10
–	Nc1nc(N2CCCCC2)c2[nH]c(-c3ccccc3)cc2n1 [Example 66e, 6-Phenyl-4-piperidylpyrrolo[3,2-d]pyrimidine-2-yl Amine Hydrochloride Hydrate]	≥ 10	≥ 10
–	COc1ccc(-c2cc3nc(C)nc(N4CCCCC4)c3[nH]2)cc1F [Example 119, 2-Fluoro-1-methoxy-4-[2-methyl-4-piperidylpyrrolo[4,5-d]pyrimidin-6-yl]benzene Hydrochloride Hydrate]	≥ 10	≥ 10
–	CCCc1nc(N2CCCCC2)c2[nH]c(-c3ccccc3)cc2n1 [Example 196c, 6-Phenyl-4-piperidyl-2-propylpyrrolo[3,2-d]pyrimidine Hydrochloride Monohydrate]	≥ 10	≥ 10
–	Cc1nc(N2CCCCC2)c2[nH]c(-c3ccc(OC(F)(F)F)cc3)cc2n1 [Example 195d, Trifluoro[4-(2-methyl-4-piperidylpyrrolo[4,5-d]pyrimidin-6-yl)phenoxylmethane Hydrochloride Monohydrate]	≥ 10	≥ 10
–	Cc1nc(N2CC=CC2)c2[nH]c(-c3cccc(Cl)c3)cc2n1 [Example 198, 6-(3-Chlorophenyl)-2-methyl-4-(3-pyrrolinyl)pyrrolo[3,2-d]pyrimidine Hydrochloride Hydrate]	≥ 10	≥ 10
–	CCc1nc(N2CCCCC2)c2[nH]c(-c3ccccc3)cc2n1 [Example 68c, 2-Ethyl-6-phenyl-4-piperidylpyrrolo[3,2-d]pyrimidine Hydrochloride Monohydrate]	≥ 10	≥ 10
–	Cc1nc(N2CCCCC2)c2[nH]c(-c3ccn(S(=O)(=O)c4ccccc4)c3)cc2n1 [Example 101, 3-(2-Methyl-4-piperidylpyrrolo[4,5-d]pyrimidin-6-yl)-1-(phenylsulfonyl)pyrrole Hydrochloride Hydrate]	≥ 10	≥ 10
–	Cc1nc(N2CCCCC2)c2[nH]c(-c3ccc(O)cc3)cc2n1 [Example 72, 2-methyl-4-piperidyl-6-(4-hydroxyphenyl)pyrrolo[3,2-d]pyrimidine]	≥ 10	≥ 10
–	Cc1nc(N2CCCCC2)c2[nH]c(-c3ccc(SC(F)(F)F)cc3)cc2n1 [Example 123, Trifluoro[4-(2-methyl-4-piperidylpyrrolo[4,5-d]pyrimidin-6-yl)phenylthio]methane Hydrochloride Monohydrate]	≥ 10	≥ 10
–	Cc1nc(N2CC=CC2)c2[nH]c(-c3cccc(C(F)(F)F)c3)cc2n1 [Example 197d, 2-Methyl-4-(3-pyrrolinyl)-6-[3-(trifluoromethyl)phenyl]pyrrolo[3,2-d]pyrimidine Hydrochloride Monohydrate]	≥ 10	≥ 10
–	COc1ccc(-c2cc3nc(C)nc(N4CCCCC4)c3[nH]2)cc1 [Example 71e, 4-Methoxy-1-(2-methyl-4-piperidylpyrrolo[4,5-d]pyrimidin-6-yl)benzene Hydrochloride Monohydrate]	≥ 10	≥ 10
–	Cc1nc(N2CCCCC2)c2sc(-c3ccccc3)cc2n1 [Example 32, 2-Methyl-6-phenyl-4-piperidylthiopheno[3,2-d]pyrimidine Hydrochloride]	≥ 10	≥ 10
–	Cc1nc(N2CCCCC2)c2[nH]c(-c3cc(F)c(F)c(F)c3)cc2n1 [Example 116, 2-Methyl-4-piperidyl-6-(3,4,5-trifluorophenyl)pyrrolo[3,2-d]pyrimidine Hydrochloride Hydrate]	≥ 10	≥ 10
–	Cc1nc(N2CCCCC2)c2[nH]c(-c3ccc(C)c(C)c3)cc2n1 [Example 124, 6-(3,4-Dimethylphenyl)-2-methyl-4-piperidylpyrrolo[3,2-d]pyrimidine Hydrochloride Hydrate]	≥ 10	≥ 10
–	Cc1nc(N2CCCCC2)c2[nH]c(-c3ccc(C(F)(F)F)cc3)cc2n1 [Example 111, 2-Methyl-4-piperidyl-6-[4-(trifluoromethyl)phenyl]pyrrolo[3,2-d]pyrimidine Hydrochloride Hydrate]	≥ 10	≥ 10
–	Cc1nc(N2CCCCC2)c2[nH]c(-c3ccc(Cl)c(Cl)c3)cc2n1 [Example 118, 6-(3,4-Dichlorophenyl)-2-methyl-4-piperidylpyrrolo[3,2-d]pyrimidine Hydrochloride Monohydrate]	≥ 10	≥ 10
–	Cc1nc(N2CCCCC2)c2[nH]c(-c3ccc(F)c(F)c3)cc2n1 [Example 121, 6-(3,4-Difluorophenyl)-2-methyl-4-piperidylpyrrolo[3,2-d]pyrimidine Hydrochloride Hydrate]	≥ 10	≥ 10
–	Cc1nc(N2CCCCC2)c2[nH]c(-c3cc(C(F)(F)F)cc(C(F)(F)F)c3)cc2n1.Cl [Example 122, 6-((3,5-bis(Trifluoromethyl)phenyl)-2-methyl-4-piperidylpyrrolo[3,2-d]pyrimidine Hydrochloride]	≥ 10	≥ 10
–	Cc1nc(N2CC=CCC2)c2[nH]c(-c3ccccc3)cc2n1 [Example 65, 2-Methyl-6-phenyl-4-(1,2,3,6-tetrahydropyridinyl)pyrrolo[3,2-d]pyrimidine Hydrochloride]	≥ 10	≥ 10
224.5 to 226 °C	CC1=C(c2cc3nc(C)nc(N4CCCCC4)c3[nH]2)CCC1.Cl [Example 98, 2-Methyl-6-(2-methylcyclopent-1-enyl)-4-piperidylpyrrolo[3,2-d]pyrimidine Hydrochloride]	–	≥ 10
–	Cc1nc(N2CCCCC2)c2[nH]c(-c3ccc4c(c3)OCCO4)cc2n1 [Example 125, 6-(2-Methyl-4-piperidylpyrrolo[4,5-d]pyrimidin-6-yl)-2H,3H-benzo[e]1,4-dioxane Hydrochloride Monohydrate]	–	≥ 10
